In patent US11549950B2, “Cryptic metabolites and method for activating silent biosynthetic gene clusters in diverse microorganisms” (The Trustees of Princeton University, priority 2017, dated 2023):

How the values were obtained:
Assay type in all cases: cell-based
[1] = test system: Amycolatopsis keratiniphila NRRL B24117; assay: HiTES-IMS elicitor screen and validation, cryptic metabolites of A. keratiniphila; conditions: for induction of compound with m/z 1286 / induction of compound with m/z 1425 / elicitation of keratinimicin A (m/z 1811) synthesis: HiTES-IMS, 502-member natural products library; for elicitation of keratinimicin A and keratinicyclin B, follow-up experiments: 7.8 μM vincamine, 2 μM Dhe, HR-MS
Procedure: (§1) In other examples, freshly-collected spores of S. canus or A. keratiniphila (˜10^7) were transferred to 50 mL YEME medium (3% (w/v) yeast extract, 5% peptone, 3% malt extract, 1% glucose, 34% sucrose, and 5 mM MgCl2.6H2O) in a 250 mL Erlenmeyer flask fitted with a stainless-steel spring and cultured at 30° C./250 rpm for 3 days. Mycelia were then collected by centrifugation (10 min, 3000 g, RT) and diluted into 300 mL of R4 medium to give a final concentration of 0.05% (w/v). R4 medium^1 consisted of 0.5% (w/v) glucose, 0.1% yeast extract, 0.5% MgCl2.6H2O, 0.2% CaCl2.2H2O, 0.15% proline, 0.118% valine, 0.28% TES, 50 mg/L casamino acid, 100 mg/L K2SO4, and 1× trace element solution, which contains 40 mg/L ZnCl2, 200 mg/L FeCl3.6H2O, 10 mg/L CuCl2.2H2O, 10 mg/L MnCl2.4H2O, 10 mg/L Na2B4O7.10H2O, and 10 mg/L (NH4)6Mo7O24.4H2O). Subsequently 300 μL were dispensed into six deep-well 96-well plates using a MultiFlo Microplate Dispenser. The wells were supplemented with candidate elicitors from the same 502-member natural products library used above with the aid of a CyBi-Well automated liquid transfer robot. Each well received 0.85 μL of an elicitor (from a stock concentration of 10 mM). The plates were sealed with air-permeable membranes and grown at 30° C./250 rpm. After 5 days, the samples were desalted as described above for P. protegens.
(§2) In one example, a laser ablation electrospray ionization (LAESI) DP1000 system (Protea Bioscience) coupled to a LTQ XL mass spectrometer (Thermo) was used for IMS analysis. The extension tube connecting the two instruments was kept at 130° C. with an external heater and the sample stage was kept at 10° C. during analysis. Sheath gas flow was set to 2.0 L/h. Eighty laser pulses were applied to each well to ablate samples using an 80% laser energy setting (˜850 μJ) and a 10 Hz frequency. A solution of 2:1 MeCN/water with 0.1% acetic acid (v/v) was supplied as the electrospray solution by a syringe pump running at a flow rate of 1 μL/min. The emitter was connected to high voltage power operating at +4000V or +4500V in positive ion detection mode. All data were visualized in ProteaPlot software.
In one example, after data collection, the signals observed in each well were extracted using GMSU-LAESI software (Gubbs, Inc), which gave all m/z values and the corresponding intensities per well (i.e. per elicitor). The data were binned in 1 m/z units for 3D-plotting. Signals with an intensity lower than a set threshold were not included in the 3D plots. The data were plotted in MatLab using the bar3 function. The component 2D plots were extracted from the corresponding 3D data in MatLab and plotted in Excel. The 2D plots were normalized to the highest intensity peak. Each signal was correlated with an elicitor.
Application of HiTES-IMS to Rare Actinomycetes. The disclosed approach was also applied to rare actinomycetes, a group of bacteria that account for some structurally fascinating and functionally potent metabolites, including the antibiotic of-last-resort vancomycin as well as the anticancer agent calicheamicin. Rare actinomycetes are an ideal test case for HiTES-IMS because in addition to their abundance of silent BGCs, they are difficult to manipulate genetically, thus all but precluding transcriptional reporter assays. Amycolatopsis keratiniphila NRRL B24117 were chosen as a test case. Its genome has not been sequenced, but efforts to find further BGCs that encode glycopeptide antibiotics (GPAs) using PCR had shown that it contains a vancomycin-like BGC, though a product has not yet been reported. A. keratiniphila was subjected to HiTES-IMS and obtained the metabolome shown, focusing on the mass range of typical GPAs (FIG. 9A). […] Additionally, a compound with m/z 1425 was induced by similar elicitors, including galangin and evodiamine (FIG. 10B). […]

[2] = test system: Streptomyces canus NRRL B3980; assay: HiTES-IMS elicitor screen and flask validation, cryptic metabolites of S. canus
Procedure: as §1, §2
In one example, after data collection, the signals observed in each well were extracted using GMSU-LAESI software (Gubbs, Inc), which gave all m/z values and the corresponding intensities per well (i.e. per elicitor). The data were binned in 1 m/z units for 3D-plotting. […]
Application of HiTES-IMS to Streptomycetes. […] Three clusters of peaks, representing three compound families appeared to be elicited: compounds were detected with m/z ranging from 1260-1295, which further analysis identified as the amphomycins. […] A second set of induced compounds was also detected with m/z ranging from 1220-1245. […]

[3] = test system: Pseudomonas protegens Pf-5; assay: HiTES-IMS elicitor screen and flask validation, orfamide production; conditions: for elicitation of orfamide production: HiTES-IMS, 502-member natural products library, 96-well plates
Procedure: In one example, P. protegens was streaked out onto an LB-agar plate from frozen culture stocks and grown at 30° C. overnight. Colonies were used to inoculate 5 mL of LB in a 14 mL sterile culture tube, which was cultured 12-13 h at 30° C./250 rpm. The overnight culture was then used to inoculate 550 mL LB in a sterile Erlenmeyer flask to an initial optical density at 600 nm (OD600 nm) of 0.01. The culture was distributed into six sterile, deep-well 96-well plates (0.9 mL per well) using a MultiFlo Microplate Dispenser (BioTek). Subsequently, elicitors were added from a commercially-available 502-member natural products library (Enzo Scientific, cat #BML-2865) using a CyBi-Well automated liquid transfer robot (CyBio). Each well received 2.5 μL of an elicitor (from a stock concentration of 10 mM). The plates were sealed with air-permeable membranes and grown at 25° C./200 rpm. After 44 h, the plates were spun down, supernatants loaded onto a 96-well Strata C8-resin (Phenomenex), and the material eluted with 600 μL of 50% and 600 μL 100% MeCN into fresh 96 well plates. The eluates were then dried in a speedvac and resuspended in 30 μL of 40% MeCN (in water).
In one example, a laser ablation electrospray ionization (LAESI) DP1000 system (Protea Bioscience) coupled to a LTQ XL mass spectrometer (Thermo) was used for IMS analysis. The extension tube connecting the two instruments was kept at 130° C. with an external heater and the sample stage was kept at 10° C. during analysis. Sheath gas flow was set to 2.0 L/h. […]
As another example, Orfamides are lowly-expressed metabolites isolated from Pseudomonas protegens Pf-5 (hereafter P. protegens). […] The resulting metabolomes were analyzed using laser ablation-coupled electrospray ionization MS (LAESI-MS), an emerging method in which a mid-IR laser beam generates an ablation plume of metabolites that are ionized by an electrospray and introduced into the mass spectrometer. […] No signals were detected below m/z 1250 and above m/z 1650. […]

[4] = test system: Amycolaptopsis sp. B-24117; assay: LAESI-MS elicitor screen (FIG. 20); conditions: concentration of 30 μM each
Procedure: In another example, to commence a screen, Amycolaptopsis sp. B-24117 spore stocks were used to inoculate 100 mL of R4 medium in a 500 mL Erlenmeyer flask (approx. 10^6 spores). These were grown overnight and then dispensed into 5×95 CORNING® COSTAR® 96 well cell culture plates using a BioTek MULTIFLO™ microplate dispenser. 150 μL was dispensed into each well, which were then supplemented with each 1 μL from the Natural Products small molecule library (Enzo Scientific). The plates were grown again at 30° C. and 250 rpm for 4 days before being imaged using a Laser Ablation Electrospray Mass Spectrometer (LAESI-MS), which consisted of a Protea Biosciences LAESI® DP-1000 module coupled to a THERMO SCIENTIFIC™ LTQ mass spectrometer. Imaging of each plate was conducted as per manufacturer instructions using 1:1 MeCN/water at a flow rate of 1 μL/min to ablate the samples into the mass spectrometer. The spectrum was collected for 8 seconds per well. The data were then analyzed using ProteaPlot software, searching for mass ions that were induced by elicitors and absent in untreated samples. Referring to FIG. 20, this led to identification of a mass ion (reference 230, m/s 1810, keratinimicin A).

[5] = HiTES-IMS, 502-member natural products library

evodiamine
induction of compound with m/z 1286 [1]: induced
induction of compound with m/z 1425 [1]: induced

O=c1c(O)c(-c2ccc(O)cc2O)oc2cc(O)cc(O)c12 [morin]
elicitation of amphomycins (m/z 1260-1295) [2, 5]: best elicitors

CC[C@H]1[C@@H]2C[C@H]3[C@@H]4N(C)c5ccccc5[C@]45C[C@@H]([C@H]2[C@H]5O)N3[C@@H]1O [ajmaline]
induction of compound with m/z 1286 [1]: induced

C[C@@]12CCc3occc3[C@H]1CC[C@@]13C[C@@H](CC[C@H]12)[C@@](O)(CO)C3 [cafestol]
elicitation of orfamide production [3]: Optimal production
induction of orfamide A ([3]; flask cultures, HPLC-MS, 22 μM): stimulatory activity was further confirmed

CC(C)[C@@]1(NC(=O)[C@@H]2C[C@@H]3c4cccc5[nH]cc(c45)C[C@H]3N(C)C2)O[C@@]2(O)[C@@H]3CCCN3C(=O)[C@H](Cc3ccccc3)N2C1=O [dihydroergocristine]
elicitation of mass ion m/s 1810, keratinimicin A [4]: best elicitors
elicitation of keratinimicin A and keratinicyclin B, follow-up experiments [1]: strong stimulatory activity
elicitation of keratinimicin A (m/z 1811) synthesis [1]: most effective elicitors

O=C1c2ccccc2-n2c1nc1ccccc1c2=O [tryptanthrin]
elicitation of mass ion m/s 1810, keratinimicin A [4]: best elicitors

CCC1=C[C@@H]2CN(C1)Cc1c([nH]c3ccccc13)[C@@](C(=O)OC)(c1cc3c(cc1OC)N(C)[C@H]1[C@@](O)(C(=O)OC)[C@H](OC(C)=O)[C@]4(CC)C=CCN5CC[C@]31[C@@H]54)C2 [vinorelbine]
elicitation of orfamide production [3]: Optimal production

C=C[C@H]1C[N@@]2CC[C@H]1C[C@H]2[C@H](O)c1ccnc2ccc(OC)cc12 [quinine]
elicitation of amphomycins (m/z 1260-1295) [2, 5]: best elicitors

CC[C@]12CCCN3CCc4c(n(c5ccccc45)[C@@](O)(C(=O)OC)C1)[C@@H]32 [vincamine]
elicitation of keratinimicin A and keratinicyclin B, follow-up experiments [1]: strong stimulatory activity
elicitation of keratinimicin A (m/z 1811) synthesis [1]: most effective elicitors

O=C1Cc2c([nH]c3ccc(Br)cc23)-c2ccccc2N1 [kenpaullone]
elicitation of canucin A (m/z 1579) synthesis [2, 5]: most effective elicitor
induction of canucin A and B ([2]; validation, flask cultures, 17 μM): strong induction

O=c1c(O)c(-c2ccccc2)oc2cc(O)cc(O)c12 [galangin]
induction of compound with m/z 1286 [1]: induced
induction of compound with m/z 1425 [1]: induced
